Test: Urinary PABA recovery (compliance marker), Example 1 trial
Format: in vivo, human
Conditions: 24 h urine, all time points; 120 mg PABA per bar, 2 bars daily
Procedure: Subjects were then randomized in a parallel design into two groups to receive either the nutrient test bar or placebo food. Both placebo and test bars contained 120 mg PABA (para-aminobenzoic acid), urinary excretion of which was used as a measure of compliance. Subjects were asked to continue adherence to dietary restrictions described above and to consume the provided test or control product twice daily (once with breakfast and once with evening meal) over the 10 week period.
Fasting venous blood samples were collected at the start of the 10 week intervention phase and on the last week of the intervention period. Serum and EDTA plasma samples were then collected following centrifugation at 3000 rpm for 10 mins at 4° C. and aliquots stored at −80° C. prior to analysis. Twenty-four hour urine samples were also collected at a total of 6 different time points through the study to monitor PABA excretion.
33 subjects completed the study. Compliance was judged to be good as assessed by both subjective and objective measures. Briefly, subjects completed a food diary, in which labels attached to study bars were peeled off and stuck once consumed. The maximum number of bars reported to be missed was 14 during the 12 week (and therefore 168 bar) trial. This was corroborated by the urinary PABA results, which were used as an objective measure of compliance.

Nc1ccc(C(=O)O)cc1 [PABA, para-aminobenzoic acid]
PABA recovery: > 85%

From US20060160753A1, “Micronutrient formulation for cognitive & mood benefits” (Conopco Inc, d/b/a UNILEVER, priority 2004, published 2006)
